Assay results published in patent US20150196022A1, “ABSORBENT PAD HAVING THREE OR MORE MODULES TO ENHANCE PRESERVATION OF FLOWERS” (Paper-Pak Industries, priority 2014, published 2015).

Test: Na2S2O5 in an open environment: SO2 concentration in air measured daily
Format: physicochemical
Description: FIG. 12A and FIG. 12B show the results of a test that was performed to establish how Na2S2O5 reacts with the environment, and the effect of changes in relative humidity.
0.1 g of Na2S2O5 on sampling “boats” were placed on top of a counter; i.e., in an “open” environment. The concentration of SO2 gas (in parts per million, ppm) in the air at about 2.5 cm (about 1″) above the Na2S2O5 was measured daily for more than 50 days of testing. The relative humidity was also measured for each day of testing.
This is in agreement with the known chemistry of Na2S2O5.

- average SO2 concentration generated (0.1 g Na2S2O5, open environment, about 2.5 cm above sample, up to 50 days): 0.5 ppm
- duration of continuous SO2 generation (summary of the several tests): more than 50 days
SMILES: O=S([O-])S(=O)(=O)[O-].[Na+].[Na+] [Na2S2O5, sodium metabisulfite]
